Experimental data: patent US20080200431A1, “Heterocyclic Sulfonamide Derivatives as Inhibitors of Factor Xa” (ASTRAZENECA AB, priority 2005, published 2008)

Target: T1, human FXa (Homo sapiens, UniProt P00742)
T1 construct: FXa solution (human FXa, Haematologic Technologies Inc., Essec Junction, Vt., USA); purchased Haematologic Technologies Inc
Test: Measurement of Factor Xa inhibition (chromogenic substrate S-2765 method)
Format: biochemical
Conditions: inhibition of Factor Xa activity, screen a), specimen results
Procedure: a) Measurement of Factor Xa Inhibition
The FXa inhibitor potency was measured with a chromogenic substrate method, in a Plato 3300 robotic microplate processor (Rosys AG, CH-8634 Hombrechtikon, Switzerland), using 96-well, half-volume microtiter plates (Costar, Cambridge, Mass., USA; Cat No 3690). Stock solutions of test substance in DMSO (72 μL), 10 mmol/L, alternatively 1 mmol/L were diluted serially 1:3 (24+48 μL) with DMSO to obtain ten different concentrations, which were analyzed as samples in the assay, together with controls and blanks. As control sample melagatran was analysed. The dilutions of each test substance were analyzed consecutively, row-wise on the microtiter plate, with wash-cycles between substances to avoid cross-contamination. […] The final assay concentrations were: test substance 0.0068-133, respectively 0.00068-13.3 μmol/L, S-2765 0.40 mmol/L (KM=0.25 mmol/L) and FXa […]. The linear absorbance increase at 405 nm during 40 min incubation at 37° C. was used for calculation of percent inhibition for the test samples, as compared to references without inhibitor and/or enzyme. […]

T1 sequence (P00742 235-488 limits assumed): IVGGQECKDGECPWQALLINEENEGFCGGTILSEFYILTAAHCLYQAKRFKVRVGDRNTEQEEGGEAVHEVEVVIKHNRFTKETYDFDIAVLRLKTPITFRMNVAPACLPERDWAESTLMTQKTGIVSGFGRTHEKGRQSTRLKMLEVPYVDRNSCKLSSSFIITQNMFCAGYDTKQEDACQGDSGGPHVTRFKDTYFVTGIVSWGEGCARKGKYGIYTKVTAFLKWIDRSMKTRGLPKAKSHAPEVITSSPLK
T1 sequence (P00742 41-179 partner limits assumed): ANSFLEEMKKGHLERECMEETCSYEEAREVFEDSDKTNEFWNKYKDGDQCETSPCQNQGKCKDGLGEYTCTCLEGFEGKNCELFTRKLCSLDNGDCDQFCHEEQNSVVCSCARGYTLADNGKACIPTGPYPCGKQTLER

SMILES	IC50 [nM]
Cn1nc(N2CCC(C(=O)N3CCN(S(=O)(=O)c4ccc5c(Cl)c[nH]c5c4)C(O)C3)CC2)ccc1=O (centres unmarked) [Example 3, 6-{4-[4-(3-Chloro-1H-indole-6-sulfonyl)-3-hydroxy-piperazine-1-carbonyl]-piperidin-1-yl}-2-methyl-2H-pyridazin-3-one]	4.8
Cc1cc(N2CCC(C(=O)N3CCN(S(=O)(=O)c4ccc5c(Cl)c[nH]c5c4)CC3)CC2)c[nH]c1=O [Example 6, 4-[4-(3-Chloro-1H-indole-6-sulfonyl)-piperazine-1-carbonyl]-5′-methyl-3,4,5,6-tetrahydro-2H,1′H-[1,3′]bipyridinyl-6′-one]	98
